This is an account of results in PubChem BioAssay (NCI).

Molecules are shown by their SMILES.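 48-hour exposure; five concentrations; linearly interpolated endpoints. At the GI50, growth is halved. TGI denotes the concentration required for complete inhibition of growth.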

Test systems include MDA-MB-231 breast; HCC-2998 colon; PC-3 prostate; T-47D breast; NCI/ADR-RES ovarian; HCT-15 colon; SK-MEL-5 melanoma; RPMI-8226 leukemia; CCRF-CEM leukemia; SR leukemia.
Holding throughout (assay): NCI tumour cell line growth inhibition, 48 h

On to `COc1cc2c(cc1OC)-c1ncc3c(OC)ccc(OC)c3c1C2`, for which the GI50 in the assay on MDA-MB-231 breast is above 100 µM; in the assay with HCC-2998 colon, 22.6 µM; with PC-3 prostate it was 26.5 µM; with T-47D breast it was 29 µM; in the assay on NCI/ADR-RES ovarian it was 23.6 µM; with HCT-15 colon, 9.93 µM. Further, the GI50 is 12.4 µM with SK-MEL-5 melanoma and 6.44 µM in the assay on RPMI-8226 leukemia. In addition, the TGI in the assay on MDA-MB-231 breast, in the assay on HCC-2998 colon, in the assay on PC-3 prostate, with T-47D breast, in the assay on NCI/ADR-RES ovarian and in the assay with HCT-15 colon was above 100 µM in each case. Moreover, the TGI in the assay on SK-MEL-5 melanoma is 34.3 µM; in the assay with RPMI-8226 leukemia it was 78.2 µM.
Regarding `N#Cc1nc(-c2ccc(F)cc2)oc1S(=O)(=O)N1CCCCC1`, the GI50 was 1.86 µM in the assay with MDA-MB-231 breast; 0.954 µM in the assay with CCRF-CEM leukemia; 1.8 µM in the assay on HCC-2998 colon; 1.81 µM with PC-3 prostate; 2.13 µM in the assay on T-47D breast; 4.97 µM in the assay on NCI/ADR-RES ovarian. Further, the GI50 in the assay on HCT-15 colon was 1.59 µM; in the assay with SK-MEL-5 melanoma, 1.81 µM. In addition, the TGI in the assay on MDA-MB-231 breast is 3.54 µM; in the assay on CCRF-CEM leukemia, above 100 µM; in the assay on HCC-2998 colon, 3.46 µM; in the assay with PC-3 prostate it was 3.7 µM; in the assay with T-47D breast, 5.44 µM; in the assay on NCI/ADR-RES ovarian it was above 100 µM. Moreover, the TGI was 3.37 µM with HCT-15 colon and 3.36 µM in the assay on SK-MEL-5 melanoma.
Regarding `C#CC1(O)CCC2C3CCc4cc(Oc5nc(F)nc(-c6c7ccccc7c7n6CCS7)n5)ccc4C3CC[C@@]21C` (stereo partly drawn), the TGI in the assay on SR leukemia was found to be 92.3 µM; in the assay with CCRF-CEM leukemia, 80.1 µM; with HCC-2998 colon, 41.7 µM; with HCT-15 colon it was 54.3 µM; in the assay with SK-MEL-5 melanoma, 45.5 µM; with RPMI-8226 leukemia it was 57.5 µM.
As for `CC(C)/C=C1\CCC(CN2CCOCC2)C1=O` (stereo not drawn), the TGI in the assay with SR leukemia turned out to be 13.1 µM; in the assay on CCRF-CEM leukemia, 9.51 µM; in the assay with HCC-2998 colon it was 36.5 µM; in the assay with HCT-15 colon, 19.2 µM; with SK-MEL-5 melanoma it was 36.8 µM; in the assay with RPMI-8226 leukemia, 4.47 µM.
Consider `Cc1cc(N(CCC#N)S(=O)(=O)c2ccccc2)ccc1/C=C1\N=C(c2ccc(Cl)cc2)OC1=O`, for which the TGI in the assay on CCRF-CEM leukemia, with HCC-2998 colon, in the assay on HCT-15 colon, in the assay with SK-MEL-5 melanoma and with RPMI-8226 leukemia was above 100 µM each time.
For the compound `COC(=O)CCC(NC(=S)N/N=C(\C)c1ccc[nH]1)C(=O)OC` (stereo not drawn), the TGI with CCRF-CEM leukemia, with HCC-2998 colon, in the assay on HCT-15 colon and in the assay with SK-MEL-5 melanoma was above 100 µM throughout.
With `CCC[CH2][Sn]([CH2]CCC)([O]C(=O)c1cc(OC)c(OC)cc1OC)[O][Sn]([CH2]CCC)([CH2]CCC)[O]C(=O)c1cc(OC)c(OC)cc1OC`, the GI50 with CCRF-CEM leukemia was 0.0421 µM; with HCC-2998 colon it was 1.1 µM; in the assay with HCT-15 colon, 0.497 µM; in the assay on SK-MEL-5 melanoma, 0.898 µM; in the assay with RPMI-8226 leukemia, 0.236 µM. Besides, the TGI with CCRF-CEM leukemia came out at 0.422 µM; in the assay on HCC-2998 colon it was 2.41 µM; in the assay on HCT-15 colon, 1.71 µM; in the assay with SK-MEL-5 melanoma, 2.15 µM; in the assay on RPMI-8226 leukemia, 0.667 µM.
Regarding `C/C(CC(=O)NCCc1ccccc1)=N\NS(=O)(=O)c1ccc(C)cc1`, the TGI in the assay with CCRF-CEM leukemia, in the assay on HCC-2998 colon, in the assay on SK-MEL-5 melanoma and in the assay with RPMI-8226 leukemia was above 100 µM in each case.
Consider `CO/N=C(\COc1ccc2c(=O)c3ccccc3oc2c1)c1ccccc1`, for which the GI50 with MDA-MB-231 breast was 25.2 µM; in the assay with CCRF-CEM leukemia, above 100 µM; in the assay on PC-3 prostate, 35 µM; in the assay on T-47D breast it was above 100 µM; in the assay on NCI/ADR-RES ovarian, 77.1 µM; with HCT-15 colon it was 51.9 µM. The GI50 in the assay on SK-MEL-5 melanoma is 38.1 µM; in the assay with RPMI-8226 leukemia, above 100 µM. The TGI with MDA-MB-231 breast is 57.1 µM; with CCRF-CEM leukemia, above 100 µM; in the assay with PC-3 prostate, above 100 µM; with T-47D breast it was above 100 µM; with NCI/ADR-RES ovarian, above 100 µM; in the assay on HCT-15 colon, above 100 µM. Moreover, the TGI in the assay on SK-MEL-5 melanoma and with RPMI-8226 leukemia was above 100 µM each time.
With `O=c1cc(-c2ccccn2)[nH]c2cccc(F)c12`, the TGI with SR leukemia, in the assay with CCRF-CEM leukemia, in the assay on HCC-2998 colon, in the assay on SK-MEL-5 melanoma and in the assay on RPMI-8226 leukemia was above 100 µM in each case.
`Cc1cc2c(c(C(N)=O)c1C)-c1cccc(F)c1C2=O`: the TGI in the assay on CCRF-CEM leukemia, in the assay with HCC-2998 colon, in the assay on HCT-15 colon, with SK-MEL-5 melanoma and with RPMI-8226 leukemia was above 100 µM each time.
As to `COc1ccccc1N=Nc1c(-c2ccccc2)nn(C(=O)CC(=O)Nc2cccc(C)c2)c1-c1ccccc1`, the TGI in the assay with CCRF-CEM leukemia was above 100 µM; in the assay with HCC-2998 colon, above 100 µM; in the assay on HCT-15 colon, above 100 µM; in the assay with SK-MEL-5 melanoma, 97.8 µM.
For `O=c1cccccc1[O-].O=c1cccccc1[O-].O=c1cccccc1[O-].[Eu+3]`, the TGI was 78 µM in the assay with CCRF-CEM leukemia; above 100 µM in the assay with HCC-2998 colon; above 100 µM with HCT-15 colon; above 100 µM with SK-MEL-5 melanoma; above 100 µM in the assay with RPMI-8226 leukemia.
For `OCCCCC#Cc1ccccc1C#Cc1ccc(O)cc1`, the GI50 was 7.55 µM in the assay on MDA-MB-231 breast; 7.35 µM in the assay with CCRF-CEM leukemia; 15.4 µM in the assay on HCC-2998 colon; 17.2 µM with PC-3 prostate; 19.7 µM in the assay with T-47D breast; 17.3 µM with NCI/ADR-RES ovarian. Besides, the GI50 with HCT-15 colon is 14.1 µM; in the assay with SK-MEL-5 melanoma, 17.7 µM; in the assay on RPMI-8226 leukemia it was 19.1 µM. In addition, the TGI is 21.4 µM with MDA-MB-231 breast; 26.1 µM with CCRF-CEM leukemia; 30.4 µM with HCC-2998 colon; 35.2 µM in the assay with PC-3 prostate; 45.2 µM with T-47D breast; 35.2 µM with NCI/ADR-RES ovarian. Also, the TGI in the assay with HCT-15 colon is 28 µM; in the assay with SK-MEL-5 melanoma, 32.2 µM; with RPMI-8226 leukemia it was 48.9 µM.
`COc1ccc2c(c1)/C(=C\c1ccncc1)C(=O)N2`: the GI50 with MDA-MB-231 breast is 17.2 µM; with CCRF-CEM leukemia, 3.06 µM; in the assay on HCC-2998 colon, 19 µM; in the assay on PC-3 prostate it was 25 µM; in the assay with T-47D breast, 22.3 µM; with NCI/ADR-RES ovarian it was 12.3 µM. The GI50 in the assay on HCT-15 colon was 2.97 µM; with SK-MEL-5 melanoma it was 13.1 µM; in the assay with RPMI-8226 leukemia it was 10.2 µM. In addition, the TGI was 36.7 µM in the assay with MDA-MB-231 breast; above 100 µM in the assay on CCRF-CEM leukemia; above 100 µM in the assay with HCC-2998 colon; above 100 µM in the assay on PC-3 prostate; above 100 µM in the assay on T-47D breast; 67.1 µM in the assay with NCI/ADR-RES ovarian. Besides, the values for the TGI in the assay on HCT-15 colon, in the assay with SK-MEL-5 melanoma and with RPMI-8226 leukemia were 13.1 µM, 27.6 µM and 77.1 µM, respectively.
